In patent US20210276978A1, “INHIBITORS OF HISTONE DEACETYLASE” (Alkermes, Inc., priority 2018, published 2021):

Assays:
[1] = target: T1, Full length Human HDAC2 (Homo sapiens, UniProt Q92769); assay: HDAC2 enzymatic assay (deacetylation of FAM-labeled peptide substrate, microfluidic electrophoresis); format: biochemical; conditions: 1 uM substrate peptide
T1 construct: Full length Human HDAC2 with; FLAG (C); host or cells: baculovirus expression system
Experimental: (§1) HDAC2 and HDAC1 Enzymatic Assay (HDAC2 and HDAC1 IC50 Data)
(§2) The following describes an assay protocol for measuring the deacetylation of a peptide substrate by HDAC2 or HDAC1.
(§3) HDAC protein composition and respective substrate peptides are summarized below.
(§4) HDAC reactions are assembled in 384 well plates (Greiner) in a total volume of 20 µL as following:
(§5) HDAC proteins are pre-diluted in the assay buffer comprising: 100 mM HEPES, pH 7.5, 0.1% BSA, 0.01% Triton X-100, 25 mM KCl and dispensed into 384 well plate (10 uL per well).
(§6) Test compounds are serially pre-diluted in DMSO and added to the protein samples by acoustic dispensing (Labcyte Echo). Concentration of DMSO is equalized to 1% in all samples.
(§7) Control samples (0%-inhibition in the absence of inhibitor, DMSO only) and 100%-inhibition (in the absence of enzyme) are assembled in replicates of four and used to calculate the %-inhibition in the presence of compounds.
(§8) At this step compounds can be pre-incubated with enzyme if desired.
(§9) The reactions are initiated by addition of 10 uL of the FAM-labeled substrate peptide pre-diluted in the same assay buffer. Final concentration of substrate peptide is 1 uM (HDAC1-2). The reactions are allowed to proceed at room temperature. Following incubation, the reactions are quenched by addition of 50 µL of termination buffer (100 mM HEPES, pH7.5, 0.01% Triton X-100, 0.1% SDS). Terminated plates are analyzed on a microfluidic electrophoresis instrument (Caliper LabChip® 3000, Caliper Life Sciences/Perkin Elmer) which enables electrophoretic separation of de-acetylated product from acetylated substrate. A change in the relative intensity of the peptide substrate and product is the parameter measured. Activity in each test sample is determined as the product to sum ratio (PSR): P/(S+P), where P is the peak height of the product, and S is the peak height of the substrate. Percent inhibition (Pinh) is determined using the following equation: Pinh=(PSR0% inh−PSRcompound)/(PSR0% inh−PSR100% inh)*100, in which: PSRcompound is the product/sum ratio in the presence of compound, PSR0% inh is the product/sum ratio in the absence of compound and the PSR100% inh is the product/sum ratio in the absence of the enzyme. To determine IC50 of compounds (50%-inhibition) the %-inh data (Pinh versus compound concentration) are fit by a 4 parameter sigmoid dose-response model using XLfit software (IDBS).
(§10) In the table, “A” indicates a IC50 value of less than 0.5 “B” a IC50 value from 0.5 μM to 1.0 μM; “C” a IC50 value of greater than 1.0 μM and less than or equal to 2.0 μM; and “D” indicates an IC50 value of greater than 2.0 NT=Not Tested.

[2] = target: T2, Full length Human HDAC1 (Homo sapiens, UniProt Q13547); assay: HDAC1 enzymatic assay (deacetylation of FAM-labeled peptide substrate, microfluidic electrophoresis); format: biochemical; conditions: 1 uM substrate peptide
T2 construct: Full length Human HDAC1 with; His (C); FLAG (C); host or cells: baculovirus expression system
Experimental: as §1, §2, §3, §4, §5, §6, §7, §8, §9, §10

[3] = target: T3, HDAC2 (Homo sapiens, UniProt Q92769); assay: HDAC2 enzymatic inhibition assay in SH-SY5Y cell lysate with an exogenous substrate (HDAC-Glo 2); format: cell-based; conditions: SH-SY5Y cells
T3 construct: host or cells: SH-SY5Y cells
Experimental: HDAC2 Enzymatic Inhibition Assay in SH-SY5Y Cell Lysate with an Exogenous Substrate
SH-SY5Y cells (Sigma) were cultured in Eagle's Modified Essential Medium supplemented with 10% fetal bovine serum and pen/strep. Twenty-four hours prior to compound dosing 20 uL of cells were plated in white 384 well plates at a density of 1,500 cells/well. Compounds were serially diluted in neat DMSO and then diluted 1:100 v/v into media without FBS and mixed. Media was removed from the plated cells and the diluted compounds in serum free media (1% v/v final DMSO) were added and incubated at 37.0 for five hours. Ten uL of HDAC-Glo 2 reagent with 0.1% Triton X-100 was then added, the plate was mixed and allowed to develop at room temperature for 100 minutes. Plates were then read with a Spectramax LMax luminometer employing a 0.4 s integration time. Dose response curves were constructed with normalized data where CI-994 at 100 uM was defined as 100% inhibition and DMSO alone as 0% inhibition.
In the table, “A” indicates a IC50 value of less than 0.5 μM; “B” a IC50 value from 0.5 μM to 1.0 μM; “C” a IC50 value of greater than 1.0 μM and less than or equal to 2.0 μM; and “D” indicates an IC50 value of greater than 2.0 μM. NT=Not Tested.

[4] = five hours incubation, HDAC-Glo 2 reagent, class symbols
[5] = HDAC-Glo 2, numeric values, Table 4

T1 sequence (Q92769 whole entry): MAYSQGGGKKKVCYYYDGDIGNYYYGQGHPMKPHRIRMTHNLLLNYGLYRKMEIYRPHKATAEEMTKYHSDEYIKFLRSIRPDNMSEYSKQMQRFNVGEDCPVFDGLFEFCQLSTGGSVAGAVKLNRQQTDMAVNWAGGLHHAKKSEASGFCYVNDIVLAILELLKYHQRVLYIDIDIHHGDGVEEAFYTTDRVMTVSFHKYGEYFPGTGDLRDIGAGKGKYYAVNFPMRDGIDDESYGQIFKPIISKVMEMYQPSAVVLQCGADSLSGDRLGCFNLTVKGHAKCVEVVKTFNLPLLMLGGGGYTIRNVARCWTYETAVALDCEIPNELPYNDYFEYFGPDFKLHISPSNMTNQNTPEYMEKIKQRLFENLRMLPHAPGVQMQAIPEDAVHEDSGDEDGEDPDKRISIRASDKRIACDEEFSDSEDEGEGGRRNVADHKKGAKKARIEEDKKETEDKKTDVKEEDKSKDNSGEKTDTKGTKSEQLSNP
T3 sequence (Q92769 whole entry): as above
T2 sequence (Q13547 whole entry): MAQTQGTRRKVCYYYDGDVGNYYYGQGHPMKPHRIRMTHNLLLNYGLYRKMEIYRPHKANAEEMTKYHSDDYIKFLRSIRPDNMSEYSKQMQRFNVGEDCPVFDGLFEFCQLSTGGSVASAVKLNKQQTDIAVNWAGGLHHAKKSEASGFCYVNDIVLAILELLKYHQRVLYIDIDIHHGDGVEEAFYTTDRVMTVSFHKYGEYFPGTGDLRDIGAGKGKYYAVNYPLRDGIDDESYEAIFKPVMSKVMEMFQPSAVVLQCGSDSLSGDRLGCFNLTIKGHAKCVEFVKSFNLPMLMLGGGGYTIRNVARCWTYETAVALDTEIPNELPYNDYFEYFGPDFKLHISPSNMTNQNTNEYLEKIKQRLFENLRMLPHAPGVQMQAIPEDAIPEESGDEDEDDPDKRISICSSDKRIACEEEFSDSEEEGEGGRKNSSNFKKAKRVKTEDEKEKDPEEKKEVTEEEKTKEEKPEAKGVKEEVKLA

Compound	IC50 [1] [nM]	IC50 [2] [nM]	IC50 [3, 4] [nM]	IC50 [3, 5] [nM]
Nc1ccc(-c2ccc(F)cc2F)nc1NC(=O)N1CCC(c2ncccn2)C1 (racemic) [Compound 7]	500 to 1000	< 500	500 to 1000	
Nc1ccc(-c2ccc(F)cc2F)nc1NC(=O)N1CCC(c2ncccn2)C1 (single isomer, unassigned) [Compound 8E1]	< 500	< 500		
Nc1ccc(-c2ccc(F)cc2F)nc1NC(=O)N1CCC(c2ncccn2)C1 (single isomer, unassigned) [Compound 8E2]	1000 to 2000	1000 to 2000		
Nc1ccc(-c2ccc(F)cc2F)nc1NC(=O)N1CCC(c2ncc(F)cn2)C1 (single isomer, unassigned) [Compound 14E1]	500 to 1000	< 500	500 to 1000	
Nc1ccc(-c2ccc(F)cc2F)nc1NC(=O)N1CCC(c2ncc(F)cn2)C1 (single isomer, unassigned) [Compound 14E2]	> 2000	500 to 1000	> 2000	
Nc1ccc(-c2ccc(F)cc2)nc1NC(=O)N1CCC(c2ncccn2)C1 (single isomer, unassigned) [Compound 19E1]	< 500	500 to 1000	1000 to 2000	
Nc1ccc(-c2ccc(F)cc2)nc1NC(=O)N1CCC(c2ncccn2)C1 (single isomer, unassigned) [Compound 19E2]	< 500	< 500	500 to 1000	
Nc1ccc(-c2ccc(F)cc2)nc1NC(=O)N1CCC(c2ncc(F)cn2)C1 (single isomer, unassigned) [Compound 20E1]	500 to 1000	500 to 1000	1000 to 2000	
Nc1ccc(-c2ccc(F)cc2)nc1NC(=O)N1CCC(c2ncc(F)cn2)C1 (single isomer, unassigned) [Compound 20E2]	< 500	< 500	500 to 1000	
Nc1ccc(-c2ccc(F)cc2F)nc1NC(=O)N1CCC(Cc2ncccn2)C1 (single isomer, unassigned) [Compound 25E1]	1000 to 2000	1000 to 2000	500 to 1000	
Nc1ccc(-c2ccc(F)cc2F)nc1NC(=O)N1CCC(Cc2ncccn2)C1 (single isomer, unassigned) [Compound 25E2]	> 2000	1000 to 2000	500 to 1000	
Nc1ccc(-c2ccc(F)cc2F)nc1NC(=O)N1CCC(F)(c2ncccn2)C1 (single isomer, unassigned) [Compound 29E1]	< 500	< 500	500 to 1000	
Nc1ccc(-c2ccc(F)cc2F)nc1NC(=O)N1CCC(F)(c2ncccn2)C1 (single isomer, unassigned) [Compound 29E2]	1000 to 2000	1000 to 2000	1000 to 2000	
Nc1ccc(-c2ccc(F)s2)nc1NC(=O)N1CCC(c2ncccn2)C1 (single isomer, unassigned) [Compound 39]	1000 to 2000	1000 to 2000	> 2000	
Nc1ccc(-c2ccc(F)s2)nc1NC(=O)N1CCC(c2ncccn2)C1 (single isomer, unassigned) [Compound 40]	< 500	< 500	500 to 1000	
Nc1ccc(-c2ccc(F)s2)nc1NC(=O)N1CCC(c2ncc(F)cn2)C1 (single isomer, unassigned) [Compound 43]	> 2000	1000 to 2000	1000 to 2000	
Nc1ccc(-c2ccc(F)s2)nc1NC(=O)N1CCC(c2ncc(F)cn2)C1 (single isomer, unassigned) [Compound 44]	500 to 1000	< 500	500 to 1000	
Cc1ccnc(C2CCN(C(=O)Nc3nc(-c4ccc(F)cc4)ccc3N)C2)n1 (single isomer, unassigned) [Compound 50]	1000 to 2000	1000	> 2000	
Cc1ccnc(C2CCN(C(=O)Nc3nc(-c4ccc(F)cc4)ccc3N)C2)n1 (single isomer, unassigned) [Compound 51]	500 to 1000	< 500	1000 to 2000	
Nc1ccc(-c2ccc(F)cc2)nc1NC(=O)N1CCC(F)(c2ncc(F)cn2)C1 (single isomer, unassigned) [Compound 52]	1000 to 2000	500 to 1000	> 2000	
Nc1ccc(-c2ccc(F)cc2)nc1NC(=O)N1CCCC1 [Comparator A, reference compound]				2640
Nc1ccc(-c2ccc(F)cc2)nc1NC(=O)N1CCC(F)(F)C1 [Comparator B, reference compound]				14000

Compound	IC50 [1] [nM]	IC50 [2] [nM]	IC50 [3, 4] [nM]	IC50 [3, 5] [nM]
Nc1ccc(-c2ccc(F)cc2)nc1NC(=O)N1CCC(C(F)(F)F)C1 (stereo not shown) [Comparator C, reference compound]				6360
COCC1CCN(C(=O)Nc2nc(-c3ccc(F)cc3)ccc2N)C1 (stereo not shown) [Comparator E, reference compound]				> 100000
Nc1ccc(-c2ccc(F)cc2F)nc1NC(=O)N1CC[C@@H](Oc2cccnc2)C1 [Compound 5]			> 2000	
Nc1ccc(-c2ccc(F)cc2F)nc1NC(=O)N1CC[C@H](Oc2cccnc2)C1 [Compound 6]			> 2000	
Cc1ccc(C2CCN(C(=O)Nc3nc(-c4ccc(F)cc4F)ccc3N)C2)cn1 (stereo not shown) [Compound 11]			> 2000	
COCc1cccc(C2CCN(C(=O)Nc3nc(-c4ccc(F)cc4F)ccc3N)C2)n1 (stereo not shown) [Compound 12]			> 2000	
Cc1cc(C2CCN(C(=O)Nc3nc(-c4ccc(F)cc4F)ccc3N)C2)nc(C)n1 (stereo not shown) [Compound 13]			> 2000	
Cc1nccc(C2CCN(C(=O)Nc3nc(-c4ccc(F)cc4F)ccc3N)C2)n1 (stereo not shown) [Compound 15]			> 2000	
Cc1cc(C)nc(C2CCN(C(=O)Nc3nc(-c4ccc(F)cc4F)ccc3N)C2)n1 (stereo not shown) [Compound 16]			> 2000	
Cc1cncc(C2CCN(C(=O)Nc3nc(-c4ccc(F)cc4F)ccc3N)C2)n1 (stereo not shown) [Compound 17]			1000 to 2000	
Nc1ccc(-c2ccc(F)cc2F)nc1NC(=O)N1CCC(Oc2cccnn2)C1 (stereo not shown) [Compound 22]			> 2000	
Cc1ccnc(CC2CCN(C(=O)Nc3nc(-c4ccc(F)cc4F)ccc3N)C2)n1 (stereo not shown) [Compound 27]			1000 to 2000	
Cc1ccc(CC2CCN(C(=O)Nc3nc(-c4ccc(F)cc4F)ccc3N)C2)nn1 (stereo not shown) [Compound 28]			1000 to 2000	
Cc1cnc(C2CCN(C(=O)Nc3nc(-c4ccc(F)cc4F)ccc3N)C2)s1 (stereo not shown) [Compound 30]			> 2000	
Nc1ccc(-c2ccc(F)cc2F)nc1NC(=O)N1CCC(Cc2cccnc2)C1 (stereo not shown) [Compound 31]			> 2000	
Cc1nnc(C2CCN(C(=O)Nc3nc(-c4ccc(F)cc4F)ccc3N)C2)s1 (stereo not shown) [Compound 32]			1000 to 2000	
Cc1cnc(C2CCN(C(=O)Nc3nc(-c4ccc(F)cc4F)ccc3N)C2)nc1 (stereo not shown) [Compound 33]			> 2000	
Nc1ccc(-c2ccc(F)cc2F)nc1NC(=O)N1CCC(Cn2ccnc2)C1 (stereo not shown) [Compound 34]			> 2000	
Nc1ccc(-c2ccc(F)cc2F)nc1NC(=O)N1CCC(Cn2cccn2)C1 (stereo not shown) [Compound 35]			> 2000	
Nc1ccc(-c2ccc(F)cc2F)nc1NC(=O)N1CCC(c2cnc(C(F)F)cn2)C1 (stereo not shown) [Compound 37]			> 2000	
Nc1ccc(-c2ccc(Cl)s2)nc1NC(=O)N1CCC(c2ncccn2)C1 (stereo not shown) [Compound 42]			> 2000	
Cc1cnc(CC2CCN(C(=O)Nc3nc(-c4ccc(F)cc4F)ccc3N)C2)o1 (stereo not shown) [Compound 47]			> 2000	
